Assay [1] concerns phosphorylated ribosomal protein S6 (pS6). Nature of the assay: Immunoblot of phosphorylated S6 in cortex after WYE125132 treatment. In kind it is in vivo. Particulars: cortex of Cntnap2-/- and Cntnap2+/- mice, 14 consecutive days gavage 10 mg/kg. As for the experimental part:
(§1) Cntnap2 mutant and WT mice were obtained from heterozygous crossings and were born with the expected Mendelian frequencies. The three obtained genotypes were housed together. Mice were treated with p.o. gavaging once per day with either WYE125132 (10 mg/kg) or vehicle. All procedures involving animals were performed in accordance with the Columbia University/New York State Psychiatric Institute animal research committee.
euthanized. For the electrophysiology and western blot rescue experiments, adult mice were gavaged for 14 consecutive days after which they were euthanized.
Western blot analysis of mouse brain tissue and immunocytochemistry in human brain tissue was performed using standard methods.
We examined whether we can reverse the dramatic enlargement of the pyramidal cell somata by targeting the mTOR overactivation. To this end, mice were gavaged daily with WYE125132 from P12 until P33-36 after which their brains were harvested for further analysis.

For assay [2], the system named is pyramidal cells of Cntnap2 (Caspr2) mutant mice. Kind of assay: Soma size quantitation of pyramidal cells after WYE125132 treatment. It counts as in vivo. From the text: In order to assess whether we could reverse or prevent the cellular abnormalities (i.e., enlarged pyramidal cell size), we treated with WYE125132 (‘Tx’ in FIG. 12) or vehicle (‘veh’ in FIG. 12) Caspr2^+/−/Thy1-YFP/H and Caspr2^−/−/Thy-1-YFP/H mice and WT littermates also positive for YFP/H for the entire period P12-P35. The mice were perfused and subsequently fixed with 4% PFA and sectioned coronally at 16 microns. Subsequently, 200× images were taken using an epifluorescent microscope of somatosensory and auditory cortex—a total of 15 images per animal/cortical region. The cell somata were traced on Photoshop to quantify pixels. We then converted the pixels to square microns. For the analysis listed here, Caspr2^+/−/Thy1-YFP/H and
Cntnap2 mutant and WT mice were obtained from heterozygous crossings and were born with the expected Mendelian frequencies. […]
WYE125132 (Chemscene) was administered by a daily p.o. gavaging in a volume of 10 ml/kg. […] For the two-photon and cell size quantitation studies, mice were gavaged from P12 to p35, after they were
Soma Size Quantitation. […]
perfused with PBS and then 4% PFA and subsequently post-fixed in 4% PFA for 1 hour at 4° C. […] Sections containing auditory and somatosensory cortices were analyzed. […] Soma size was determined by manually tracing pyramidal cell somata and measuring pixel number per selection. […] For each animal, 90 to 140 somata were measured. […]

In assay [3] the test system is dendritic spines in the frontal association cortex. Nature of the assay: In vivo transcranial two-photon microscopy of dendritic spine formation and elimination. Details: species or system mice. From the text: In order to assess whether we could reverse or prevent the abnormalities in spine dynamics in Caspr2 mutants, we treated Caspr2^+/−/Thy1-YFP/H, Caspr2^−/−/Thy-1-YFP/H mice, and WT littermates also positive for YFP/H from P12-P32 with either WYE125132 or with vehicle. One-month old (P30±1) male mice were used in the experiments. Spine formation and elimination were examined by imaging the mouse cortex through a thinned-skull window as described previously. Briefly, 1-mo old male mice expressing YFP were anaesthetized with ketamine and xylazine (intraperitoneal; 20 mg/ml and 3 mg/ml, respectively, in saline; 6 μl per gram of body weight). Thinned-skull windows were made in head-fixed mice with high-speed microdrills. Skull thickness was reduced to about 20 μm. A twophoton microscope tuned to 920 nm (×60 water immersion lens; numerical aperture,1.1) was used to acquire images. For re-imaging of the same region, thinned regions were identified on the basis of the maps of the brain vasculature. Microsurgical blades were used to re-thin the region of interest until a clear image could be obtained. The area of the imaging region was 200 μm×200 μm in the frontal association cortex. The centers of the imaging regions were as follows: +2.8 mm bregma, +1.0 mm midline.
(§2) WYE125132 (Chemscene) was administered by a daily p.o. gavaging in a volume of 10 ml/kg. For all behavioral experiments, dams were treated from PO to P12 after which individual pups were gavaged on a daily basis going forward. Mice also received drug treatment on the days of testing, at least 1 hour prior the experiment. For the two-photon and cell size quantitation studies, mice were gavaged from P12 to p35, after they were
One-month-old (P30±1) male mice were used in the experiments. Spine formation and elimination were examined by imaging the mouse frontal association cortex through a thinned-skull window as described previously (Lai, 2012).
To examine whether we could reverse the abnormalities in dendritic spine dynamics in the frontal association cortex, we gavaged the mice daily from P12 to P32 with WYE125132 versus vehicle.

A further assay concerns Cntnap2 mutant mice. Kind of assay: Novel Object Recognition (NOR) test. It counts as in vivo. Particulars: WYE125132-treated Cntnap2-/- mice, P<0.05. How it is done: as §1, §2
Mice were marked with ear tagging. Experimenters were blinded to the genotype during testing. Behavioral tests were performed in the New York State Psychiatric Institute behavioral test core facility.
We examined whether we could reverse cognitive deficits in Cntnap2 mutant mice. We subjected Cntnap2 mutant mice to the Novel Object Recognition (NOR) test, a behavioral task that requires precise cognitive control. […]

Each structure is given as a SMILES string. “Also recorded” adds a separate entry of the source.

Consider `CNC(=O)Nc1ccc(-c2nc(N3CC4CCC(C3)O4)c3cnn(C4CCC5(CC4)OCCO5)c3n2)cc1` [WYE125132], for which the “phosphorylation of S6 (Phospho-S6: S6)” value in assay [1] was “reverses phosphorylation of S6 to levels observed in WT littermates; also recorded: completely reversed”. Also, in assay [2] (Cntnap2+/- and Cntnap2-/- (Caspr2) mutant mice, daily p.o. gavage 10 mg/kg, P12 to P33-36 (about 3 weeks), 10 mg/kg), the “enlarged pyramidal cell soma size” value is reported as “completely reverses the enlarged pyramidal cell size; also recorded: complete reversal of the pyramidal cell enlargement phenotype; also recorded: entirely rescued”. Besides, in assay [2] (WT mice, compound versus vehicle), the “soma size in WT animals” value is “no effect on soma size”. The “spine formation (in words)” value in assay [3] (Caspr2+/-/Thy1-YFP/H mice, P12-P32, P<0.0058) was “increase in spine formation”. The “spine elimination (in words)” value in assay [3] (Caspr2+/-/Thy1-YFP/H mice, P12-P32, versus vehicle, P<0.006) is recorded as “dramatic prevention of spine elimination”; in assay [3] (Caspr2-/-/Thy-1-YFP/H mice, P12-P32, versus vehicle, P<0.04), “statistically significant prevention”; in assay [3] (both Cntnap2+/- and Cntnap2-/- mutant mice, P12 to P32), “reduced back to levels seen in the WT littermates; also recorded: rescues excessive spine elimination”. Moreover, the figures for the “rate of spine elimination” value in assay [3] (Cntnap2+/- mice gavaged daily P12 to P32 with WYE125132) and in assay [3] (Cntnap2-/- mice gavaged daily P12 to P32 with WYE125132) were 8.5%±2.0% and 9.5%±1.6%, respectively. In addition, in the assay with Cntnap2 mutant mice, the “deficit in the Novel Object Recognition test” value is given as “rescue of this phenotype; also recorded: rescue of a deficit”.

The values are drawn from US20160089377A1, “THERAPEUTIC TARGETING OF THE MTOR PATHWAY IN NEURODEVELOPMENTAL AND NEUROPSYCHIATRIC DISEASE” (THE TRUSTEES OF COLUMBIA UNIVERISTY IN THE CITY OF NEW YORK, priority 2013, published 2016).
